Data set [1] has as its system methicillin-sensitive Staphylococcus aureus (MSSA), Streptococcus pyrogenes and Streptococcus pneumoniae, penicillin-resistant pneumococci (PRSP), oral …. As to conditions: reported in the literature; gram-positive bacteria incl. strains where conventional β-lactams are ineffective; cited from earlier work.
Data set [2] is described as follows: Gastrointestinal absorption of compound 1 after oral administration (plasma AUC). The class given is in vivo, Sprague-Dawley rats. To be noted: rat; for AUC: male, Sprague-Dawley, compound 1 as free acid in plasma. Here is the method:
Seven-week old male Sprague-Dawley rats orally received 70.5 mg/kg (57.1 mg (potency)/kg) of compound 1 and 57.1 mg/kg of disodium ethylenediaminetetraacetate. Controls orally received 70.5 mg/kg of compound 1 alone. At 0.1-10 hours after administration, blood was collected. The concentration of compound 1 as free acid in plasma was determined by high-performance liquid chromatography. For determination, plasma was used after pretreatment. That is, 0.2 mL of plasma was stirred with 0.2 mL of acetonitrile and then centrifuged at 4° C., 12000 rpm for 15 min. Two hundreds μL of this supernatant was diluted in 800 μL of 10 mM phosphate buffer, and 200 μL of this dilution was applied on a high-performance liquid chromatography column. The chromatography conditions were as follows. A stainless steel high-performance liquid chromatographic column packed with octadecylsilyl silica gel was used. The column temperature was room temperature. The mobile phase consisted of a binder containing 680 mL of a 20 mM aqueous sodium dihydrogenphosphate solution adjusted at pH 2 with phosphoric acid and 320 mL of acetonitrile. The flow rate was controlled at 1 mL/min. For detection, a UV absorption spectrometer was used at a wavelength of 318 nm.

The test system of the next data set is Porphyromonas gingivalis. As to conditions: reported in the literature; cited from earlier work.
Data set [3] has as its system bacterial strains from dental infectious diseases. To be noted: reported in the literature; increasingly resistant strains; cited from earlier work.

With `C[C@@H](O)[C@H]1C(=O)N2C(C(=O)O)=C([C@H]3CCCO3)S[C@H]12` [compound 1, Sodium (+)-(5R,6S)-6-[(R)-1-hydroxyethyl]-7-oxo-3-[(R)-2-tetrahydrofuryl]-4-thia-1-azabicyclo[3.2.0]hept-2-ene-2-carboxylate 5/2 hydrate], the Antibacterial activity entry (in data set [1]; in the data set with Porphyromonas gingivalis; in data set [3]) was “potent antibacterial activity” throughout. Besides, the “Change of AUC versus control group” value in data set [2] (group coadministered with disodium ethylenediaminetetraacetate compared with compound 1 alone) is on record as “approximately doubled”. Besides, the area under the curve (AUC) worked out at 24800 ± 9300 ng·h/mL in data set [2] (70.5 mg/kg compound 1 with 57.1 mg/kg disodium ethylenediaminetetraacetate) and 12600 ± 5700 ng·h/mL in data set [2] (control group: 70.5 mg/kg compound 1 alone).

Source of the values: patent publication US6531508B1, “Antibacterial medicinal compositions” (priority 1999, dated 2003).
